Test results as given in US8710089B2, “Triazole derivatives as ghrelin analogue ligands of growth hormone secretagogue receptors” (Zentaris GmbH, priority 2005, dated 2014).
pIC50: −log10 of the molar value. Several values for one entry are separate records, joined by “and”; a condition that tells them apart may be missing. Equal entries are not always repeated. Non-standard residues stand in square brackets, D forms with d. Residues, ends and D or L forms follow the SMILES beside them. dTrp(2-Me) = Cc1[nH]c2ccccc2c1C[C@@H](N)C(=O)O

Tests used:
human GHS-R 1a = target: T1, human GHS-R 1a (Homo sapiens, UniProt Q92847); assay: GHS-R 1a receptor-ligand binding assay (membrane preparations from transfected LLC PK-1 cells); settings: displacement of 125I-His9-ghrelin (60 pM); membranes of LLC PK-1 cells transfected with human GHS-R 1a; mean of at least two independent experiments in triplicates
T1 construct: expressed in transfected cells; host or cells: LLC PK-1 porcine renal epithelial cells (ECACC No. 86121112), isolated plasma membranes
T1 sequence (Q92847 whole entry): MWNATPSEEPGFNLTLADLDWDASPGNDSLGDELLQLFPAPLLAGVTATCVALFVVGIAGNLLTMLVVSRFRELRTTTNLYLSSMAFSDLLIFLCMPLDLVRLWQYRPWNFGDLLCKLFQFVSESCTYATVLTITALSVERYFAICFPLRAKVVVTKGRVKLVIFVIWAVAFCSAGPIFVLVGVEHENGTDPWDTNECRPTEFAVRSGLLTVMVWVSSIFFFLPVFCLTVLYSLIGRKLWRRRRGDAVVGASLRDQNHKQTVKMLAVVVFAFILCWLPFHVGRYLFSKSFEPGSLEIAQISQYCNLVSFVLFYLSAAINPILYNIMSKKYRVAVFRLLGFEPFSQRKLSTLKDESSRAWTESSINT
How it was run: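 Membranes from LLC PK-1 cells expressing human GHS-R 1a incubated 60 min at 25 °C in 50 mM Tris pH 7.3, 5 mM MgCl2, 2.5 mM EDTA, bacitracin with 60 pM 125I-ghrelin and competitor; nonspecific binding with 10^-6 M ghrelin; filtration read-out.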

[1] = test system: GH concentration in the plasma of male rat pups; assay: In vivo GH concentration in the plasma of male rat pups; design: species or system rat (Sprague-Dawley); settings: rat pup plasma
Experimental: IV) Assaying In Vivo GH Concentration in the Plasma of Male Rat Pups
GH plasma concentrations of male rat pubs were assayed to characterize the modulation effect (antagonistic or agonistic) of the compounds of the invention being GHS receptor analogue ligands.
In principle, assaying in vivo GH concentration in rat plasma was performed according to Torsello et al. (Eur. J. Pharmacol. 1998, 360: 123-129).
Male Sprague-Dawley rat pups (Charles River, Calco, Italy) were separated on postnatal day seven from their mothers and randomly redistributed to the dams, so that each one nurtured ten to twelve pups. On postnatal day ten, the pups were again separated from their mothers.
The compounds to be tested were dissolved in solvent [DMSO (0.4% of total volume), distilled water (4% of total volume), brought to the final volume with physiological saline].
One hour after separation from their mothers, the pups were given isovolumetric amounts of the compounds to be tested (160 μg/kg body weight s.c.) at time −10 min and then administered with hexarelin (80 μg/kg body weight s.c.) or solvent at time 0 min before being killed 15 min later by decapitation. Trunk blood was collected, immediately centrifuged and plasma samples were stored at −20° C. until assayed for the determination of GH concentrations.
Plasma GH concentrations were measured using a rat growth hormone enzyme immunoassay kit (SPIbio, France, cat. no. 589601) according to the manufacturer's instructions. Values are expressed in terms of NIDDK rat-GH-RP2 standard (potency 2 IU/mg) as ng/mL of plasma
The limit of detection calculated as the concentration producing 15% displacement of initial tracer was 0.5 ng/ml; intra-assay and inter-assay coefficient of variation are 4% (n=24) and 14% (n=9).
In the following table 3 results obtained for selected compounds of the invention are presented.

[2] = test system: young-adult male Sprague-Dawley rats; assay: Feeding behavior (food intake) of young-adult male rats; format: in vivo, rat (Sprague-Dawley)
Experimental: V) Assaying the Feeding Behavior (Food Intake) of Young-Adult Male Rats
The impact of compounds of the invention being GHS receptor analogue ligands on the feeding behaviour, i.e. food intake, of young-adult male rats was assayed.
In principle, assaying the feeding behavior (food intake) of young-adult male rats was performed according to Torsello et al. (Eur. J. Pharmacol. 1998, 360: 123-129).
For the assay, young-adult male Sprague-Dawley rats (Charles River, Calco, Italy), weighing 200-250 g, were used.
Rats had 1 week of acclimation in individual home cages, and animal room conditions (22±2° C., 65% humidity, artificial light from 08.00 to 20.00 h). The following week, they were daily trained to mimic the experimental procedure. Rats maintained free access to dry pellets and tap water throughout the whole experimental period. At the end of training, rats were administered (around 10.00-11.00 a.m.) subcutaneously with the compounds to be tested (160 μg/kg body weight) and/or hexarelin (80 μg/kg body weight) and/or solvent [DMSO (0.4% of total volume), distilled water (4% of total volume), brought to the final volume with physiological saline].
Hexarelin was used to study the effects of the compounds to be tested on stimulated feeding behavior. Immediately after the injections, the animals were returned to their home cages, which contained a known amount of standard rat chow and ad libitum water. Every hour for the following 6 hours, the remaining food was carefully collected and weighed to the nearest 0.1 g. Food intake was normalized for the body weight of the rats and expressed as grams of food eaten per 100 g body weight of rats.
In the following table 4 results obtained for selected compounds of the invention are presented.

[3] = compound 160 μg/kg s.c. at -10 min + hexarelin 80 μg/kg s.c. at 0 min, killed 15 min later
[4] = compound 160 μg/kg s.c. + hexarelin 80 μg/kg s.c.
[5] = compound alone, 160 μg/kg body weight s.c.
[6] = compound alone 160 μg/kg body weight s.c. at -10 min, solvent at 0 min, killed 15 min later

| SMILES | pIC50 (human GHS-R 1a) | GH concentration [1, 3] | Cumulative food intake (after 2 hours) [2, 4] [g food/100 g body weight] | Cumulative food intake (after 6 hours) [2, 4] [g food/100 g body weight] | Cumulative food intake (after 2 hours) [2, 5] [g food/100 g body weight] | Cumulative food intake (after 6 hours) [2, 5] [g food/100 g body weight] | GH concentration [1, 6] | GH concentration ([1]; hexarelin alone 80 μg/kg body weight s.c.) |
| --- | --- | --- | --- | --- | --- | --- | --- | --- |
| COc1ccc(Cn2c(CCc3c[nH]c4ccccc34)nnc2[C@@H](Cc2c[nH]c3ccccc23)NC(=O)C(C)(C)N)c(OC)c1 [compound 1, (R)—N-(1-(5-(2-(1H-indol-3-yl)ethyl)-4-(2,4-dimethoxybenzyl)-4H-1,2,4-triazol-3-yl)-2-(1H-indol-3-yl)ethyl)-2-amino-2-methylpropanamide] | 6.80 | 80.22 ± 18.66 ng/mL | 0.06 ± 0.02 | 0.33 ± 0.21 | 0.02 ± 0.002 | 0.06 ± 0.03 | – | – |
| CC(C)(N)C(=O)N[C@H](Cc1c[nH]c2ccccc12)c1nnc(CCCc2c[nH]c3ccccc23)n1Cc1ccccc1 [compound 9, (R)—N-(1-(5-(3-(1H-indol-3-yl)propyl)-4-benzyl-4H-1,2,4-triazol-3-yl)-2-(1H-indol-3-yl)ethyl)-2-amino-2-methylpropanamide] | 7.34 | 183.562 ± 16.729 ng/mL | 0.0104 ± 0.0032 | 0.0231 ± 0.0032 | 0.01 ± 0 | 0.01 ± 0 | 13.016 ± 1.960 ng/mL | – |
| CC(C)(N)C(=O)N[C@H](Cc1c[nH]c2ccccc12)c1nnc(CCCc2c[nH]c3ccccc23)n1CCc1c[nH]c2ccccc12 [compound 24, (R)—N-(1-(4-(2-(1H-indol-3-yl)ethyl)-5-(3-(1H-indol-3-yl)propyl)-4H-1,2,4-triazol-3-yl)-2-(1H-indol-3-yl)ethyl)-2-amino-2-methylpropanamide] | 7.54 | – | 0.586 ± 0.252 | 0.912 ± 0.359 | 0.008 ± 0.008 | 0.215 ± 0.200 | – | – |
| CC(C)(N)C(=O)N[C@H](Cc1c[nH]c2ccccc12)c1nnc(Cc2ccccc2)n1Cc1ccc(F)cc1 [compound 30, (R)—N-(1-(4-(4-fluorobenzyl)-5-benzyl-4H-1,2,4-triazol-3-yl)-2-(1H-indol-3-yl)ethyl)-2-amino-2-methylpropanamide] | 6.77 | – | 1.350 ± 0.177 | 1.449 ± 0.213 | 0.264 ± 0.244 | 0.277 ± 0.246 | – | – |
| COc1ccc(Cn2c(CCc3c[nH]c4ccccc34)nnc2[C@@H](Cc2c[nH]c3ccccc23)NC(=O)C2CCNCC2)c(OC)c1 [compound 31, (R)—N-(1-(5-(2-(1H-indol-3-yl)ethyl)-4-(2,4-dimethoxybenzyl)-4H-1,2,4-triazol-3-yl)-2-(1H-indol-3-yl)ethyl)piperidine-4-carboxamide] | 9.30 | 103.528 ± 14.094 ng/mL | – | – | – | – | 119.937 ± 33.054 ng/mL | – |
| COc1ccc(Cn2c(CCc3c[nH]c4ccccc34)nnc2[C@@H](Cc2c[nH]c3ccccc23)NC(=O)c2ccccc2N)c(OC)c1 [compound 38, (R)—N-(1-(5-(2-(1H-indol-3-yl)ethyl)-4-(2,4-dimethoxybenzyl)-4H-1,2,4-triazol-3-yl)-2-(1H-indol-3-yl)ethyl)-2-aminobenzamide] | 6.95 | – | 0.002 ± 0.002 | 0.478 ± 0.141 | 0.001 ± 0 | 0.076 ± 0.096 | – | – |
| CC(C)(N)C(=O)N[C@H](Cc1c[nH]c2ccccc12)c1nnc(Cc2ccccc2)n1Cc1ccccn1 [compound 39, (R)—N-(1-(5-benzyl-4-(pyridin-2-ylmethyl)-4H-1,2,4-triazol-3-yl)-2-(1H-indol-3-yl)ethyl)-2-amino-2-methylpropanamide] | – | 82.481 ± 11.530 ng/mL and 82.481 ± 11.53 ng/mL | – | – | – | – | 5.509 ± 1.950 ng/mL and 5.509 ± 1.95 ng/mL | – |
| COc1ccc(Cn2c(CCc3ccccc3)nnc2[C@@H](Cc2c[nH]c3ccccc23)NC(=O)[C@@H]2CCCCN2)cc1 [compound 48, (S)—N—((R)-1-(4-(4-methoxybenzyl)-5-phenethyl-4H-1,2,4-triazol-3-yl)-2-(1H-indol-3-yl)ethyl)piperidine-2-carboxamide] | – | 145.946 ± 12.159 ng/mL | – | – | – | – | 6.096 ± 2.091 ng/mL | – |
| COc1ccc(Cn2c(CCc3ccccc3)nnc2[C@@H](Cc2c[nH]c3ccccc23)NC(=O)CN)cc1 [compound 50, (R)—N-(1-(4-(4-methoxybenzyl)-5-phenethyl-4H-1,2,4-triazol-3-yl)-2-(1H-indol-3-yl)ethyl)-2-aminoacetamide] | – | 164.459 ± 4.443 ng/mL | 0.003 ± 0.002 | 0.017 ± 0.001 | 0.012 ± 0.008 | 0.039 ± 0.011 | 9.852 ± 1.040 ng/mL | – |
| COc1ccc(Cn2c(CCc3c[nH]c4ccccc34)nnc2[C@H](N)Cc2c[nH]c3ccccc23)c(OC)c1 [compound 74, (R)-1-(5-(2-(1H-indol-3-yl)ethyl)-4-(2,4-dimethoxybenzyl)-4H-1,2,4-triazol-3-yl)-2-(1H-indol-3-yl)ethanamine] | – | 194.564 ± 7.658 ng/mL | – | – | – | – | 10.571 ± 0.791 ng/mL | – |
| COc1ccc(Cn2c(CCc3c[nH]c4ccccc34)nnc2[C@@H](Cc2c[nH]c3ccccc23)NC(=O)c2ccccn2)cc1 [compound 80, (R)—N-(1-(5-(2-(1H-indol-3-yl)ethyl)-4-(4-methoxybenzyl)-4H-1,2,4-triazol-3-yl)-2-(1H-indol-3-yl)ethyl)picolinamide] | 8.72 | – | 0.475 ± 0.196 | 0.733 ± 0.238 | 0.145 ± 0.143 | 0.346 ± 0.159 | – | – |
| Cc1[nH]c2ccccc2c1C[C@@H](NC(=O)[C@@H](N)Cc1cnc[nH]1)C(=O)N[C@@H](C)C(=O)N[C@@H](Cc1c[nH]c2ccccc12)C(=O)N[C@H](Cc1ccccc1)C(=O)N[C@@H](CCCCN)C(N)=O [hexarelin, Hexarelin, reference compound] (H-H[dTrp(2-Me)]AW[dF]K-NH2) | – | – | – | – | – | – | – | 170.101 ± 13.226 ng/mL and 253.820 ± 12.268 ng/mL and 162.839 ± 21.095 ng/mL |
